Test results taken from ChEMBL document CHEMBL5625233, “Exploring positions 6 and 7 of a quinazoline-based scaffold leads to changes in selectivity and potency towards RIPK2/3 kinases” (Eur J Med Chem, 2023).
The source made the active and inactive calls. The rule behind the calls is not given here.

How the values were obtained:
[1] = biological target: T1, Receptor-interacting serine/threonine-protein kinase 3 (Homo sapiens, UniProt Q9Y572); experiment: Inhibition of N-terminal polyHis-tagged human RIPK3 (1 to 307 residues) expressed in Sf9 cells using MBP as substrate upto 10 uM preincubated for 15 mins followed by ATP addition measured after 90 mins by ADP-Glo assay; conditions: time 105.0 min
Target sequence in this assay (Q9Y572 whole entry, looked up, the tested form may be a part): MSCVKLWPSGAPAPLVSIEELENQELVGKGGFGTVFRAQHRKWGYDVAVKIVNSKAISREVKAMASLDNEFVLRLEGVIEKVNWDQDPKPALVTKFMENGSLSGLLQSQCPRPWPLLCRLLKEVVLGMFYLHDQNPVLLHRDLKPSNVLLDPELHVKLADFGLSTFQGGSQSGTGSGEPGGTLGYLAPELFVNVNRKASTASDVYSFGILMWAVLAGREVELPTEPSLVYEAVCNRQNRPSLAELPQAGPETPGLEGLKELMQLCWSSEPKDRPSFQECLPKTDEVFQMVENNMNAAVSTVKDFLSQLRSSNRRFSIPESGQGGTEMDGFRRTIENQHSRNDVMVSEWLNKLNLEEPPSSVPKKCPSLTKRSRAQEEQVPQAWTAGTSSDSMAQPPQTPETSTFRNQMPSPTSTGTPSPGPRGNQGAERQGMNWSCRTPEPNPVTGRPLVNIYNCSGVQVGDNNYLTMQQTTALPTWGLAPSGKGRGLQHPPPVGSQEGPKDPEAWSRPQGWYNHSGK

[2] = biological target: T2, Receptor-interacting serine/threonine-protein kinase 1 (Homo sapiens, UniProt Q13546); experiment: Inhibition of N-terminal polyHis-tagged human RIPK1 (1 to 321 residues) expressed in Sf9 cells using MBP as substrate preincubated for 15 mins followed by ATP addition measured after 90 mins by ADP-Glo assay
T2 sequence (Q13546 whole entry): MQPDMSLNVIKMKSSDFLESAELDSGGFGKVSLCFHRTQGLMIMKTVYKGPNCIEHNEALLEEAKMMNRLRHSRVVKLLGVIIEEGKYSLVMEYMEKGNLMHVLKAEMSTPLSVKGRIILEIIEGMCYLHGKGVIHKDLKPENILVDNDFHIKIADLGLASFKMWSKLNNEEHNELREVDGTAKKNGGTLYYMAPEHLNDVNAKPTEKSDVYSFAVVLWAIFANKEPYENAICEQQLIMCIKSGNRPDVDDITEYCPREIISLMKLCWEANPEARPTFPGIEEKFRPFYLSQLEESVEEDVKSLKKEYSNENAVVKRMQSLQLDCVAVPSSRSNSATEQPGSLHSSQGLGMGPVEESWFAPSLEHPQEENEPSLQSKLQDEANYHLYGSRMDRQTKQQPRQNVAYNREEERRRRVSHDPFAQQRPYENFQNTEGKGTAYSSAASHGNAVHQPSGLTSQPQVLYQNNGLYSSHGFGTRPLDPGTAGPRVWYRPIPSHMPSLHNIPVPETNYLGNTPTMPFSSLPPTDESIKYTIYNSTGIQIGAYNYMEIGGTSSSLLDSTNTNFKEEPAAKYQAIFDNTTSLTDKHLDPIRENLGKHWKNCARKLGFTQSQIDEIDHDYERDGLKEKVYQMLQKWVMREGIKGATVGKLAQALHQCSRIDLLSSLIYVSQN

[3] = biological target: T3, Receptor-interacting serine/threonine-protein kinase 4 (Homo sapiens, UniProt P57078); experiment: Inhibition of N-terminal polyHis-tagged human RIPK4 (1 to 321 residues) expressed in Sf9 cells using MBP as substrate preincubated for 15 mins followed by ATP addition measured after 90 mins by ADP-Glo assay
T3 sequence (P57078 whole entry): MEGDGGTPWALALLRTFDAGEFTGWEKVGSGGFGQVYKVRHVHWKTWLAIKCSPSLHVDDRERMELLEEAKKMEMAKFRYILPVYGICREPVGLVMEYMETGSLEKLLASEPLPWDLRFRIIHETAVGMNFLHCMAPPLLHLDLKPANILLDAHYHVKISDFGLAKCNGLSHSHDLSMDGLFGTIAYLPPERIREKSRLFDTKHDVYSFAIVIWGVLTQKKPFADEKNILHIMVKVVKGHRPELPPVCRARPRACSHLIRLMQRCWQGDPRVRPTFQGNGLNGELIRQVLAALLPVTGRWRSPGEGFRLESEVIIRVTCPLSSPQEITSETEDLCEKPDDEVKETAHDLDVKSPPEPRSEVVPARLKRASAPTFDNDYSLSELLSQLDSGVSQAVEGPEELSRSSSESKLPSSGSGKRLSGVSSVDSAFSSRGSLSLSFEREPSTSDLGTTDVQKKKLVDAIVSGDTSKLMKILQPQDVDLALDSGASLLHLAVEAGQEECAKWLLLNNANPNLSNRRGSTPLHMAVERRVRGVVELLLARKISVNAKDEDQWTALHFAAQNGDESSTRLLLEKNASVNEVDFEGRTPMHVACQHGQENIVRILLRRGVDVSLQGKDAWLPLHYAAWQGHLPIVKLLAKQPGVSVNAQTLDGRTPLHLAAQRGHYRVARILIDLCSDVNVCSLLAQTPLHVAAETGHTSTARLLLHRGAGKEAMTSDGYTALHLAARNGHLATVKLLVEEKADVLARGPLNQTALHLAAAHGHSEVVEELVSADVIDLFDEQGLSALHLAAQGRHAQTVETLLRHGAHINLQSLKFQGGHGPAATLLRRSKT

[4] = biological target: T4, Receptor-interacting serine/threonine-protein kinase 2 (Homo sapiens, UniProt O43353); experiment: Inhibition of RIPK2-mediated NF-kappaB signalling in C14-TriLAN-Gly-treated human THP-1 cells upto 10 uM preincubated for 30 mins followed by C14-TriLAN-Gly addition measured after 24 hrs by luminescence based assay; type: cell-based
[5] = biological target: T4, Receptor-interacting serine/threonine-protein kinase 2; experiment: Inhibition of RIPK2-mediated NF-kappaB signalling in MDP-treated human THP-1 cells upto 10 uM preincubated for 30 mins followed by MDP addition measured after 24 hrs by luminescence based assay; type: cell-based
[6] = Metabolic stability in human plasma assessed as compound remaining at 5 uM incubated for 120 mins by ECHO-MS analysis; type: ADME, cell-free; conditions: for remaining at 2 h, 5 µM: read-out: Stability; for Stability: 2 h, 5 µM
[7] = Metabolic stability in mouse plasma assessed as compound remaining at 5 uM incubated for 120 mins by ECHO-MS analysis; type: ADME, cell-free; conditions: for remaining at 2 h, 5 µM: read-out: Stability
[8] = biological target: T4, Receptor-interacting serine/threonine-protein kinase 2; experiment: Inhibition of N-terminal polyHis-tagged human RIPK2 (8 to 310 residues) expressed in Sf9 cells using MBP as substrate preincubated for 15 mins followed by ATP addition measured after 90 mins by ADP-Glo assay
[9] = biological target: T4, Receptor-interacting serine/threonine-protein kinase 2; experiment: Inhibition of RIPK2-mediated NF-kappaB signalling in C14-TriLAN-Gly-treated human THP-1 cells preincubated for 30 mins followed by C14-TriLAN-Gly addition measured after 24 hrs by luminescence based assay; type: cell-based
[10] = biological target: T4, Receptor-interacting serine/threonine-protein kinase 2; experiment: Inhibition of RIPK2-mediated NF-kappaB signalling in MDP-treated human THP-1 cells preincubated for 30 mins followed by MDP addition measured after 24 hrs by luminescence based assay; type: cell-based
[11] = Metabolic stability in human liver microsomes assessed as compound remaining at 10 uM incubated for 45 mins by ECHO-MS analysis; type: ADME, Microsome; conditions: for remaining at 0.75 h, 10 µM: liver microsomes, read-out: Stability; for Stability: microsomes, 0.75 h, 10 µM
[12] = Metabolic stability in mouse liver microsomes assessed as compound remaining at 10 uM incubated for 45 mins by ECHO-MS analysis; type: ADME, Microsome; conditions: read-out: Stability
[13] = biological target: Vascular endothelial growth factor receptor 2 (Homo sapiens) (UniProt P35968); experiment: Inhibition of human KDR relative to control; design: concentration or dose not given beside the values; conditions: concentration not given here
[14] = biological target: Epidermal growth factor receptor (Homo sapiens) (UniProt P00533); experiment: Inhibition of human EGFR relative to control; conditions: concentration not given here
[15] = biological target: T1, Receptor-interacting serine/threonine-protein kinase 3; experiment: Inhibition of N-terminal polyHis-tagged human RIPK3 (1 to 307 residues) expressed in Sf9 cells using MBP as substrate preincubated for 15 mins followed by ATP addition measured after 90 mins by ADP-Glo assay
Target sequence in this assay (Q9Y572 whole entry, the tested form may be a part): as the sequence (Q9Y572 whole entry, looked up, the tested form may be a part) above

HT-29 = experiment: Cytotoxicity against human HT-29 cells assessed as cell viability at 10 uM incubated for 24 hrs by Cell Titer Glo assay; type: toxicity, cell-based; conditions: ht-29, 24 h
[16] = biological target: Serine/threonine-protein kinase 10 (Homo sapiens) (UniProt O94804); experiment: Inhibition of human LOK relative to control; conditions: concentration not given here
[17] = biological target: Tyrosine-protein kinase Fyn (Homo sapiens) (UniProt P06241); experiment: Inhibition of human FYN relative to control; conditions: concentration not given here
[18] = biological target: MAP kinase-interacting serine/threonine-protein kinase 2 (Homo sapiens) (UniProt Q9HBH9); experiment: Inhibition of human MNK2 relative to control; conditions: concentration not given here
Sequence of MAP kinase-interacting serine/threonine-protein kinase 2 (Homo sapiens) (Q9HBH9 whole entry, looked up): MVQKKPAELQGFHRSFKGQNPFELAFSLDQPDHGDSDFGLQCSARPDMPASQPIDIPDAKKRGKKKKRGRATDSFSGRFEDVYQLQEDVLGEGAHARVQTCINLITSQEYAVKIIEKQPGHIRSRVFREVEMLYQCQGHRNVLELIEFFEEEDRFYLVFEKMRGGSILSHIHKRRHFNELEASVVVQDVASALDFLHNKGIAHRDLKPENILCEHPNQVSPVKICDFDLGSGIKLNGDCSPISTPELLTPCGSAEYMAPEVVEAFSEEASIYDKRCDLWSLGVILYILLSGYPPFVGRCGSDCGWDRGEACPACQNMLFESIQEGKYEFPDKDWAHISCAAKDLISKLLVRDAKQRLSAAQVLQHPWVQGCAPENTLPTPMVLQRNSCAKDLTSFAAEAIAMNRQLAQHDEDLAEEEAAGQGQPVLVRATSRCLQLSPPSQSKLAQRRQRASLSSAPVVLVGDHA

Sequence of Vascular endothelial growth factor receptor 2 (Homo sapiens) (P35968 whole entry): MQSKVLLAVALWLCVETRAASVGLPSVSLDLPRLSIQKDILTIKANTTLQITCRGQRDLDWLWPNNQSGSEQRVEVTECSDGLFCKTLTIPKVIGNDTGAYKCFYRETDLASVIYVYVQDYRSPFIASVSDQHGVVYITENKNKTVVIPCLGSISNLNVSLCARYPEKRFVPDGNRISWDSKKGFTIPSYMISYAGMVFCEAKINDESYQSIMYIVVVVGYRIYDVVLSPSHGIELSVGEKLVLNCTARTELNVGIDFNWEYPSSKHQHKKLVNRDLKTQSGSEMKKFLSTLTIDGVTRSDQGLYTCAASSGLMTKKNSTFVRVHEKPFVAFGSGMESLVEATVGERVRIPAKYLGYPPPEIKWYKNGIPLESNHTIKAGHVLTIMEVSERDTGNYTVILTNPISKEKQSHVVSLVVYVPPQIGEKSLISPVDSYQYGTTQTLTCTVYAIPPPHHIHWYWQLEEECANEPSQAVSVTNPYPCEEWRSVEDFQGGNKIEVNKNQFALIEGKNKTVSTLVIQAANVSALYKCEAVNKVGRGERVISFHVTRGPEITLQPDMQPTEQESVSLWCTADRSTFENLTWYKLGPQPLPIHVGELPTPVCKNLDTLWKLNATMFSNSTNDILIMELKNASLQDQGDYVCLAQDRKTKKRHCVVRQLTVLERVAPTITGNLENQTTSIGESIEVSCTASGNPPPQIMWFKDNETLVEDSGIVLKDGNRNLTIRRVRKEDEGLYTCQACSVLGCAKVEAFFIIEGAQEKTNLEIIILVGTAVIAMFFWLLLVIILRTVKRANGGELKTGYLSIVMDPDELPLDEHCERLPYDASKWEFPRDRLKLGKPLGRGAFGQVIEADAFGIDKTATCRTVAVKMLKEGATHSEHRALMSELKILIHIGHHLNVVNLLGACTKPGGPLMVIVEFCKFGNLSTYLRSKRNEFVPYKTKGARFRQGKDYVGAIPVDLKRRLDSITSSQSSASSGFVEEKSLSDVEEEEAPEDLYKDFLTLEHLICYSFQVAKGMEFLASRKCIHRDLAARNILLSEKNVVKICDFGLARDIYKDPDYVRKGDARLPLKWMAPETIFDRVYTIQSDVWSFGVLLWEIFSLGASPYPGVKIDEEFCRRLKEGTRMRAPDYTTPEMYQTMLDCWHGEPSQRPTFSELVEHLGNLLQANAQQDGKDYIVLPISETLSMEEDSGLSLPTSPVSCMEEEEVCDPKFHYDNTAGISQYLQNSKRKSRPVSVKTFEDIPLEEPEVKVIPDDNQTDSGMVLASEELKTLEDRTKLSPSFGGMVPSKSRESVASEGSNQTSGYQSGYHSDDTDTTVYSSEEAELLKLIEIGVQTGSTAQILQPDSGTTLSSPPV
T4 sequence (O43353 whole entry): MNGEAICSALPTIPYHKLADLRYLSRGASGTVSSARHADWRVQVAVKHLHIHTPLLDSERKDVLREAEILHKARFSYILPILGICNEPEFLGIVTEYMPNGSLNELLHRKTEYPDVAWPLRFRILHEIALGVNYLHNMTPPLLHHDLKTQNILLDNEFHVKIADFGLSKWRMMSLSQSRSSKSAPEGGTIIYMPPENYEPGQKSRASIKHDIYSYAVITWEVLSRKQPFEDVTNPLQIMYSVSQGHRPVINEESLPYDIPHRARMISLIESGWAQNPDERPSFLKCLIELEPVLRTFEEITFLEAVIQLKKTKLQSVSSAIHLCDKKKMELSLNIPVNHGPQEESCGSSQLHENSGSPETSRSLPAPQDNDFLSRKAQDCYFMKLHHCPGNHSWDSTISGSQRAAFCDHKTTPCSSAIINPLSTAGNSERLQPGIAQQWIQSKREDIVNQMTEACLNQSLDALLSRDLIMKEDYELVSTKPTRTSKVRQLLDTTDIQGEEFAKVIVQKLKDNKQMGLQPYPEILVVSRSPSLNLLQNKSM
Sequence of Epidermal growth factor receptor (Homo sapiens) (P00533 whole entry, the tested form may be a part): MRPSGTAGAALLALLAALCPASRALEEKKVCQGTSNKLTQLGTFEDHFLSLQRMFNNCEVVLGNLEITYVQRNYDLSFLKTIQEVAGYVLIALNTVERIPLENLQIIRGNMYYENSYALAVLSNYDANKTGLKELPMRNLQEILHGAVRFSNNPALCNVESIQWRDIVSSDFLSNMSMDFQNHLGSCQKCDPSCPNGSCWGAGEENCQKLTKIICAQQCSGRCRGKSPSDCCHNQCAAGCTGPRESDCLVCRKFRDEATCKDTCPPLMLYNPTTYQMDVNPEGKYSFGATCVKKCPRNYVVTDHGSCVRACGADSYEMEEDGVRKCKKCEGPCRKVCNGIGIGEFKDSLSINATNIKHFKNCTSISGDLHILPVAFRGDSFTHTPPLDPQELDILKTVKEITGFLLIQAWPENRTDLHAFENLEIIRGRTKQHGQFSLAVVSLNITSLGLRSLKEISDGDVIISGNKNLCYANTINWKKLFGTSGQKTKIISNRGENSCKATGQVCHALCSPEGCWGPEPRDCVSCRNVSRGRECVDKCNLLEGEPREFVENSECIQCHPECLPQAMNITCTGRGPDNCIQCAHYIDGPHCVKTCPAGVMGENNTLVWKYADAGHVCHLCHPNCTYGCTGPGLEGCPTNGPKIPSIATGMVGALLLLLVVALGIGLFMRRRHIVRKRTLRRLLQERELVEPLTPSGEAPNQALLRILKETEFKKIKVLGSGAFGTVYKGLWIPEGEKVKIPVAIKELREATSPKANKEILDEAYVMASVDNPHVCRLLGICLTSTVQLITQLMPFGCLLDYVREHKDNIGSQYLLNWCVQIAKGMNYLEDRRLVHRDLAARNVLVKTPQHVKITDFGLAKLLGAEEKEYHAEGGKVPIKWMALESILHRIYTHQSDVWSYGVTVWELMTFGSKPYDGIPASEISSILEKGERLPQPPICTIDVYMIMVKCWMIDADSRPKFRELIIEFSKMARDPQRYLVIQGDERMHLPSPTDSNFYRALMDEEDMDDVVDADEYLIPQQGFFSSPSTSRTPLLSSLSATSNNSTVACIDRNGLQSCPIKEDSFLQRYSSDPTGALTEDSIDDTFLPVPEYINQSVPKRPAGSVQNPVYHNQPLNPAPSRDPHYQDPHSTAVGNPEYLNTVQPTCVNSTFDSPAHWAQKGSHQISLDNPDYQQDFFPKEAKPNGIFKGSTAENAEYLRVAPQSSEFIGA
Sequence of Serine/threonine-protein kinase 10 (Homo sapiens) (O94804 whole entry, looked up): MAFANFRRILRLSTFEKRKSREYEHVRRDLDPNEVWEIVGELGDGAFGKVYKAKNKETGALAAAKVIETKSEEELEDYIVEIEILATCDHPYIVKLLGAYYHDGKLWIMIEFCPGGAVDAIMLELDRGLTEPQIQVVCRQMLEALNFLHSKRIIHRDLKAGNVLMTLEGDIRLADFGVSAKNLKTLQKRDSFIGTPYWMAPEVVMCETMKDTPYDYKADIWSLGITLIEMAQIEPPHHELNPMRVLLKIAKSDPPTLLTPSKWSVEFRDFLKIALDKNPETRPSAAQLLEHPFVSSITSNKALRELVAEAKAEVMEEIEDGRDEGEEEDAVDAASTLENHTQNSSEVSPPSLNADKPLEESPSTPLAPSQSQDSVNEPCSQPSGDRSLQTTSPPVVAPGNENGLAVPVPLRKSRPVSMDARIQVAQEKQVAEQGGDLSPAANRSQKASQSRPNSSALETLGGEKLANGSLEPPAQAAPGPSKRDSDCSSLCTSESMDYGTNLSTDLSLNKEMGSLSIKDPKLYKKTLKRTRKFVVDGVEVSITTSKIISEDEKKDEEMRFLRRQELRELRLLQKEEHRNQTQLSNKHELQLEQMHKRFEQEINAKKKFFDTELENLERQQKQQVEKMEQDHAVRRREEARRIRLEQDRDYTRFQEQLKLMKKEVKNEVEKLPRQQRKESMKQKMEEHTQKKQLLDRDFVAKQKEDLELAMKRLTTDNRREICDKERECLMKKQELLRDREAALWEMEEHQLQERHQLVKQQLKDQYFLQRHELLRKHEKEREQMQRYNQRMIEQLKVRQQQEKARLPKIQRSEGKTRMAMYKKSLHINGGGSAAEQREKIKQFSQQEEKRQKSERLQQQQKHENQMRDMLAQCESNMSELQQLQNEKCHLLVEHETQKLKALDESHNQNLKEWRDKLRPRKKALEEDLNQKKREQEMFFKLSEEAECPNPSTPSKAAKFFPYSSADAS

Structure (SMILES) | inhibition [1] | IC50 [2] [nM] | IC50 [3] [nM] | IC50 [4] | IC50 [5] | remaining at 2 h, 5 µM [7] [%] | IC50 [8] [nM] | IC50 [9] [nM] | IC50 [10] [nM] | remaining at 0.75 h, 10 µM [12] [%] | further results
Cc1csc(-c2cc3c(Nc4ccc5scnc5c4)ncnc3cc2Cl)n1 | inactive | > 50000 | > 50000 | Not Active | Not Active | – | – | – | – | – | –
CC(C)[N+](C)(CCOC(=O)C1c2ccccc2Oc2ccccc21)C(C)C [PROPANTHELINE] | – | – | – | – | – | 11 | – | – | – | – | remaining at 2 h, 5 µM [6]: 2%
Cc1nc(-c2cc3c(Nc4ccc5scnc5c4)ncnc3cc2Cl)sc1C | inactive | > 50000 | > 50000 | Not Active | Not Active | – | – | – | – | – | –
Cn1cncc1-c1ccc2ncnc(Nc3ccc4scnc4c3)c2c1 | inactive | > 50000 | > 50000 | – | – | 79 | 4 | 119 | 115 | 118 | remaining at 0.75 h, 10 µM [11]: 108%; Stability [6]: 121%; inhibition [13]: 66%; inhibition [14]: 68%
Clc1cc2ncnc(Nc3ccc4scnc4c3)c2cc1-c1ccccc1 | inactive | > 50000 | > 50000 | Not Active | Not Active | – | – | – | – | – | –
Cc1ccsc1-c1cc2c(Nc3ccc4scnc4c3)ncnc2cc1-c1cccc(CO)c1 | – | > 50000 | > 50000 | – | – | 108 | 4 | 225 | 229 | 118 | IC50 [15]: 122 nM; Activity (HT-29): Toxic; Stability [11]: 123%; remaining at 2 h, 5 µM [6]: 113%; inhibition [13]: 85%
Cn1cccc1-c1cc2c(Nc3ccc4scnc4c3)ncnc2cc1-c1cccc(CO)c1 | – | > 50000 | > 50000 | – | – | 119 | 5 | 119 | 95 | 93 | IC50 [15]: 141 nM; Activity (HT-29): Toxic; Stability [11]: 124%; remaining at 2 h, 5 µM [6]: 112%; inhibition [13]: 74%
Cn1cccc1-c1cc2c(Nc3ccc4scnc4c3)ncnc2cc1Cl | inactive | > 50000 | > 50000 | Not Active | Not Active | – | 8 | – | – | – | –
Cc1nc(-c2ccc3ncnc(Nc4ccc5scnc5c4)c3c2)sc1C | inactive | > 50000 | > 50000 | Not Active | Not Active | – | 14 | – | – | – | –
Clc1cc2ncnc(Nc3ccc4scnc4c3)c2cc1-c1cc[nH]n1 | inactive | > 50000 | > 50000 | – | Not Active | – | 10 | 155 | – | – | –
Cc1ccsc1-c1cc2c(Nc3ccc4scnc4c3)ncnc2cc1Cl | inactive | > 50000 | > 50000 | Not Active | Not Active | – | 52 | – | – | – | –
C1=C(c2cc3ncnc(Nc4ccc5scnc5c4)c3cc2-c2cccs2)COC1 | – | > 50000 | > 50000 | – | – | 111 | 5 | 51 | 36 | 94 | IC50 [15]: 464 nM; remaining at 0.75 h, 10 µM [11]: 108%; remaining at 2 h, 5 µM [6]: 107%
COc1cccc(-c2ccc3ncnc(Nc4ccc5scnc5c4)c3c2)n1 | inactive | > 50000 | > 50000 | Not Active | Not Active | – | 49 | – | – | – | –
Clc1cc2ncnc(Nc3ccc4scnc4c3)c2cc1-c1cccs1 | inactive | > 50000 | > 50000 | Not Active | Not Active | – | 14 | – | – | – | –
Cn1ccnc1-c1cc2c(Nc3ccc4scnc4c3)ncnc2cc1Cl | inactive | > 50000 | > 50000 | – | – | – | 3 | 183 | 58 | 115 | remaining at 0.75 h, 10 µM [11]: 105%; Stability [6]: 141%; Stability ([7]; 2 h, 5 µM): 135%
Cc1csc(-c2ccc3ncnc(Nc4ccc5scnc5c4)c3c2)n1 | – | > 50000 | > 50000 | – | Not Active | – | 5 | 2750 | – | – | IC50 [15]: 382 nM
Cc1cscc1-c1cc2c(Nc3ccc4scnc4c3)ncnc2cc1Cl | inactive | > 50000 | > 50000 | Not Active | – | – | 104 | – | 2080 | – | –
c1csc(-c2ccc3ncnc(Nc4ccc5scnc5c4)c3c2)c1 | – | > 50000 | > 50000 | – | – | – | 4 | 106 | 120 | – | IC50 [15]: 398 nM; inhibition [16]: 50%; inhibition [13]: 69%; inhibition [17]: 71%; inhibition [18]: 54%; inhibition [14]: 54%
COc1cccc(-c2cc3c(Nc4ccc5scnc5c4)ncnc3cc2Cl)n1 | inactive | > 50000 | > 50000 | Not Active | Not Active | – | 3900 | – | – | – | –
Cn1cncc1-c1cc2c(Nc3ccc4scnc4c3)ncnc2cc1Cl | inactive | > 50000 | > 50000 | – | – | 102 | 7 | 146 | 54 | 105 | remaining at 0.75 h, 10 µM [11]: 94%; Stability [6]: 122%
